Data from US20080200499A1, “Selective Insecticides and/or Acaricides Based on Substituted Cyclic Dicarbonyl Compounds and Safeners” (priority 2004, published 2008).

Columns and labels:
Type in all cases: in vivo
[1] = test system: grain aphids (Metopolophium dirhodum); experiment: Metopolophium dirhodum test (spray application); conditions: barley plants
Source text: (§1) The expected activity of a given combination of two active compounds can be calculated according to S. R. Colby, Weeds 15 (1967), 20-22 as follows:
(§2) if • X is the kill rate when employing active compound A at an application rate of m g/ha or in a concentration of m ppm, • Y is the kill rate when employing active compound B at an application rate of n g/ha or in a concentration of n ppm and • E is the kill rate when using the active compounds A and B at application rates of m and n g/ha or in a concentration of m and n ppm, then
(§3) If the actual activity exceeds the calculated value, the activity of the combination is superadditive, i.e. a synergistic effect is present. In this case, the actually observed kill rate must exceed the value calculated using the above formula for the expected kill rate (E).
(§4) To prepare a suitable application solution, 1 part by weight of formulation is mixed with the appropriate amount of water and the adjuvant and the concentrate is diluted with water to the desired concentration.
Barley plants (Hordeum vulgare) which are heavily infested by a grain aphids (Metopolophium dirhodum) are sprayed to runoff point with the desired concentration of the application solution.
(§5) After the desired period of time, the kill in % is determined. 100% means that all aphids have been killed; 0% means that none of the aphids have been killed. The determined kill rates are entered in Colby's formula.

[2] = test system: green peach-aphid (Myzus persicae); experiment: Myzus persicae test (spray application); conditions: bell pepper plants
Source text: as §1, §2, §3, §4
Bell pepper plants (Capsicum sativum) which are heavily infested by the green peach-aphid (Myzus persicae) are sprayed to runoff point with the desired concentration of the application solution.
as §5

[3] = test system: cotton aphid (Aphis gossypii); experiment: Aphis gossypii test (spray application); conditions: cotton plants
Source text: as §1, §2, §3, §4
Cotton plants (Gossypium herbaceum) which are heavily infested by the cotton aphid (Aphis gossypii) are sprayed to runoff point with the desired concentration of the application solution.
as §5

[4] = test system: Maize; experiment: Greenhouse trial with safener after seed dressing (seed trays), maize; conditions: evaluation after 14 d
Method: In an agate mortar, the amount of safener and the amount of active compound required to prepare a 20 WS formulation are dissolved in acetone, and the appropriate amount of formulation without active compounds (which is actually used to prepare Gaucho 70 WS) is added. The mixture is allowed to dry until only a small amount of residual moisture can be detected. Using a spatula, the substance is carefully detached from the side of the mortar, and the substance is comminuted in the mortar until it has dried. An amount of the laboratory formulation thus prepared which is appropriate for the amount of seed to be dressed is filled into beakers of a size big enough so that, during dressing, they are at most one third filled with seed. A sufficient amount of water (depending on the properties of the seed surface) is then added. The seed is then filled into these beakers containing formulation and water and dressed on a test tube shaker with the aid of a spatula or glass rod. Once the formulation is distributed on the seed as uniformly as possible, the seed is allowed to dry in a fume hood. 3 l trays made of plastic (20×20×5 cm) are filled with sandy loam. Using a punch, the soil is firmed such that the deposition depth required for the crop in question is achieved. 20 seeds/seed tray are placed at regular intervals with the aid of a pair of tweezers impressed into the soil using the abovementioned punch. The test containers are placed in a greenhouse and, using the punch, the surface is once again firmed gently. In addition to the test substances, an untreated control is tested, too. Per variant, there are at least 2 trays. The trays are watered and covered with a film until the plants have emerged. After emergence, the trays are watered 2 times a day. Evaluation is carried out by counting the plants that have emerged and by assessing damage, (in %) over an interval of 5-14 days after sowing in comparison to the untreated control.

[5] = test system: Summer barley; experiment: Greenhouse trial with safener after seed dressing (seed trays), summer barley; conditions: evaluation after 14 d
Method: (§6) In an agate mortar, the amount of safener and the amount of active compound required to prepare a 20 WS formulation are dissolved in acetone, and the appropriate amount of formulation without active compounds (which is actually used to prepare Gaucho 70 WS) is added. The mixture is allowed to dry until only a small amount of residual moisture can be detected. Using a spatula, the substance is carefully detached from the side of the mortar, and the substance is comminuted in the mortar until it has dried. An amount of the laboratory formulation thus prepared which is appropriate for the amount of seed to be dressed is filled into beakers of a size big enough so that, during dressing, they are at most one third filled with seed. A sufficient amount of water (depending on the properties of the seed surface) is then added. The seed is then filled into these beakers containing formulation and water and dressed on a test tube shaker with the aid of a spatula or glass rod. Once the formulation is distributed on the seed as uniformly as possible, the seed is allowed to dry in a fume hood.
(§7) 3 l trays made of plastic (20×20×5 cm) are filled with sandy loam. Using a punch, the soil is firmed such that the deposition depth required for the crop in question is achieved. 20 seeds/seed tray are placed at regular intervals with the aid of a pair of tweezers impressed into the soil using the abovementioned punch. The test containers are placed in a greenhouse and, using the punch, the surface is once again firmed gently. In addition to the test substances, an untreated control is tested, too. Per variant, there are at least 2 trays. The trays are watered and covered with a film until the plants have emerged. After emergence, the trays are watered 2 times a day. Evaluation is carried out by counting the plants that have emerged and by assessing damage, (in %) over an interval of 5-14 days after sowing in comparison to the untreated control.

[6] = test system: Winter barley; experiment: Greenhouse trial with safener after seed dressing (seed trays), winter barley; conditions: evaluation after 14 d
Method: as §6, §7

[7] = test system: Winter barley; experiment: Safener test after spraying, variant a: plant damage
Method: (§8) To produce a suitable preparation of active compound, 1 part by weight of active compound is mixed with the stated amounts of solvent and emulsifier, and the concentrate is diluted with tap water to the desired concentration. The desired amount of safener (in the case of mefenpyr-diethyl as WP 20) is mixed into the water used for dilution. Furthermore, 2 g of ai/l of rapeseed oil methyl ester 500 EW are added. Leaves of winter barley at the 2-leaf stage which are infested by the bird cherry-oat aphid (Rhopalosiphum padi) are treated with the desired active compound and safener concentrations using a spray boom, the water application rate being 300 l/ha. Per variant, the test is carried out at least twice. Evaluation is carried out after 7 d and/or 14 d by assessing the plant damage in %, where both the treated plant and new growth and the kill of the grain aphids in % compared to the untreated control are evaluated. 100% damage means that the plant has died, and 0% means no damage. 100% effect on the grain aphids means that all aphids have been killed; 0% means that none of the aphids have been killed.

[8] = test system: bird cherry-oat aphid (Rhopalosiphum padi); experiment: Safener test after spraying, variant b: kill of aphids on winter barley; conditions: spray
Method: as §8
(§9) In variant b), the active compound is applied as an SC formulation in the desired concentrations as in variant a) in a mixture with mefenpyr-diethyl WP 20 and 2 g of ai/l rapeseed oil methyl ester 500 EW. Practice and evaluation is carried out as stated in variant a).

[9] = test system: Winter barley; experiment: Safener test after spraying, variant b: plant damage
Method: as §8, §9

[10] = test system: bird cherry-oat aphid (Rhopalosiphum padi); experiment: Safener test after spraying, variant a: kill of aphids on winter barley; conditions: spray
Method: as §8

[11] = variant a, spray, 200 g of ai/ha
[12] = variant b, spray, 200 g of ai/ha
[13] = variant b, spray, 200 g of ai/ha, 14 d

## CCCCCC(C)OC(=O)COc1ccc(Cl)c2cccnc12 (centres unmarked) [Cloquintocet-mexyl a.i., 1-methylhexyl 5-chloroquinolin-8-oxyacetate]
[1]; 100 ppm
  Kill rate in % after 7 d: 0%

## C=CCN(CC=C)C(=O)C(Cl)Cl [Dichlormid a.i., 2,2-dichloro-N,N-di-2-propenylacetamide]
[2]; 100 ppm
  Kill rate in % after 7 d: 0%
[3]; 100 ppm
  Kill rate in % after 7 d: 0%

## Cc1cc(Cl)cc(C)c1C1(Cl)C(=O)NC2(CCOCC2)C1=O (centres unmarked) [Example I-1-1]
[4]; 2 g of ai/kg of seed
  % damage: 95%
  plants that have emerged in %: 71%
[5]; 2 g of ai/kg of seed
  % damage: 100%
  plants that have emerged in %: 0%
[3]; 20 ppm
  Kill rate in % after 7 d: 20%
[6]; 2 g of ai/kg of seed
  % damage: 100%
  plants that have emerged in %: 0%

## COC1CCC2(CC1)NC(=O)C(Cl)(c1c(C)cc(Br)cc1C)C2=O (centres unmarked) [Example I-1-2]
[1]; 20 ppm
  Kill rate in % after 7 d: 45%
[7]; winter barley, in vivo
  Damage (%) 7 d: 40%
  Damage to new growth (%) 7 d: 70%
  Damage (%) 14 d: 50%
  Damage to new growth (%) 14 d: 80%
[8]; 8 g of ai/ha
  Kill (%) 7 d: 73%
  Kill (%) 14 d: 33%
[8]; 40 g of ai/ha
  Kill (%) 7 d: 100%
  Kill (%) 14 d: 70%
[2]; 20 ppm
  Kill rate in % after 7 d: 25%
[9]; winter barley, in vivo
  Damage (%) 7 d: 40%
  Damage to new growth (%) 7 d: 100%
[9]; winter barley, in vivo, 14 d
  Damage (%) 14 d: 60%
[10]; 40 g of ai/ha
  Kill (%) 7 d: 100%
  Kill (%) 14 d: 78%
[3]; 20 ppm
  Kill rate in % after 3 d: 0%

## Clc1cc(Cl)nc(-c2ccccc2)n1 [Fenclorim a.i., 4,6-dichloro-2-phenylpyrimidine]
[2]; 100 ppm
  Kill rate in % after 7 d: 0%
[3]; 100 ppm
  Kill rate in % after 3 d: 0%
  Kill rate in % after 7 d: 0%

## CC1(C)OC(c2ccco2)CN1C(=O)C(Cl)Cl (centres unmarked) [Furilazole a.i., 3-dichloroacetyl-5-(2-furanyl)-2,2-dimethyloxazolidine]
[1]; 100 ppm
  Kill rate in % after 7 d: 0%
[2]; 100 ppm
  Kill rate in % after 7 d: 0%
[3]; 100 ppm
  Kill rate in % after 3 d: 0%

## CCOC(=O)C1=NOC(c2ccccc2)(c2ccccc2)C1 [Isoxadifen-ethyl, ethyl 4,5-dihydro-5,5-diphenyl-3-isoxazolecarboxylate]
[4]; 1 g of ai/kg of seed
  % damage: 0%
  plants that have emerged in %: 96%

## CCOC(=O)C1=NN(c2ccc(Cl)cc2Cl)C(C)(C(=O)OCC)C1 (centres unmarked) [Mefenpyr-diethyl, diethyl 1-(2,4-dichlorophenyl)-4,5-dihydro-5-methyl-1H-pyrazole-3,5-dicarboxylate]
[5]; 1 g of ai/kg of seed
  % damage: 0%
  plants that have emerged in %: 75%
[7]; [11]
  Damage (%) 7 d: 0%
  Damage to new growth (%) 7 d: 0%
  Damage (%) 14 d: 0%
  Damage to new growth (%) 14 d: 0%
[8]; 200 g of ai/ha
  Kill (%) 7 d: 0%
  Kill (%) 14 d: 0%
[9]; [12]
  Damage (%) 7 d: 0%
  Damage to new growth (%) 7 d: 0%
[9]; [13]
  Damage (%) 14 d: 0%
  Damage to new growth (%) 14 d: 0%
[10]; 200 g of ai/ha
  Kill (%) 7 d: 0%
  Kill (%) 14 d: 0%
[6]; 1 g of ai/kg of seed
  % damage: 0%
  plants that have emerged in %: 83%
